Data on 40 compounds can be found in ChEMBL document CHEMBL4330130, “Synthesis of amide and sulfonamide substituted N-aryl 6-aminoquinoxalines as PFKFB3 inhibitors with improved physicochemical properties” (Bioorg Med Chem Lett, 2019).

Converted amounts (≈) assume the structure as drawn.

This data set can be described thus: Kinetic solubility of the compound in pH 8 Tris buffer at 500 uM after 90 by UV-Vis absorbance analysis. Type of data set: physicochemical. Conditions: read-out: Kinetic_solubility.
With `CC(=O)N1CCOC(CNC(=O)c2ccncc2Nc2cc(-c3ccc4ccn(C)c4c3)c3nccnc3c2)C1` (stereo not given), the solubility kinetic at 500 µM was determined as 268 µg/mL (≈ 500 µM). To `Cn1ccc2ccc(-c3cc(Nc4ccccc4S(C)(=O)=O)cc4nccnc34)cc21` belongs 2 µg/mL (≈ 4.67 µM). Regarding `Cn1cc(NC(=O)c2ccncc2Nc2cc(-c3ccc4ccn(C)c4c3)c3nccnc3c2)cn1`, the solubility kinetic at 500 µM stood at 2 µg/mL (≈ 4.21 µM). To `CN1CCC(NC(=O)c2ccncc2Nc2cc(-c3ccc4ccn(C)c4c3)c3nccnc3c2)C1` (stereo not given) belongs 229 µg/mL (≈ 480 µM); to `CC(=O)N1CCC(NC(=O)c2ccncc2Nc2cc(-c3ccc4ccn(C)c4c3)c3nccnc3c2)C1` (stereo not given), 253 µg/mL (≈ 500 µM). On to `CN1CCC(NC(=O)c2ccncc2Nc2cc(-c3cc(F)c4ccn(C)c4c3)c3nccnc3c2)C1` (stereo not given), for which the solubility kinetic at 500 µM was 185 µg/mL (≈ 373 µM). To `CC(=O)N1CCC(NC(=O)c2ccncc2Nc2cc(-c3ccc4ccn(C)c4c3)c3nccnc3c2)CC1` belongs 213 µg/mL (≈ 410 µM); to `Cn1ccc2ccc(-c3cc(Nc4ccccc4S(=O)(=O)N4CCOCC4)cc4nccnc34)cc21`, 5 µg/mL (≈ 10 µM); to `CN1CCCC(NC(=O)c2ccncc2Nc2cc(-c3ccc4ccn(C)c4c3)c3nccnc3c2)C1` (stereo not given), 246 µg/mL (≈ 500 µM).

As for `CN1CCC(NC(=O)c2ccncc2Nc2cc(-c3ccc4ccn(C)c4c3)c3nccnc3c2)CC1`, the solubility kinetic at 500 µM stood at 246 µg/mL (≈ 500 µM). Take `CN1CCC(NS(=O)(=O)c2ccccc2Nc2cc(-c3ccc4ccn(C)c4c3)c3nccnc3c2)C1` (stereo not given): the solubility kinetic at 500 µM turned out to be 26 µg/mL (≈ 50.7 µM). To `CC(=O)N1CCCC(NC(=O)c2ccncc2Nc2cc(-c3ccc4ccn(C)c4c3)c3nccnc3c2)C1` (stereo not given) belongs 212 µg/mL (≈ 408 µM); to `CC(=O)N1CC(CNC(=O)c2ccncc2Nc2cc(-c3ccc4ccn(C)c4c3)c3nccnc3c2)C1`, 252 µg/mL (≈ 498 µM); to `Cn1ccc2ccc(-c3cc(Nc4ccccc4S(=O)(=O)Nc4cncnc4)cc4nccnc34)cc21`, 254 µg/mL (≈ 500 µM).

Take `Cn1ccc2ccc(-c3cc(Nc4cnccc4C(N)=O)cc4nccnc34)cc21`: the solubility kinetic at 500 µM was determined as 40 µg/mL (≈ 101 µM). For `CNC(=O)c1ccncc1Nc1cc(-c2ccc3ccn(C)c3c2)c2nccnc2c1`, the solubility kinetic at 500 µM is 4 µg/mL (≈ 9.79 µM). In the case of `CN1CCC(N(C)C(=O)c2ccncc2Nc2cc(-c3ccc4ccn(C)c4c3)c3nccnc3c2)C1` (stereo not given), the solubility kinetic at 500 µM came out at 245 µg/mL (≈ 498 µM).

On to `Cn1ccc2ccc(-c3cc(Nc4cnccc4C(=O)NC4CCNC(=O)C4)cc4nccnc34)cc21` (stereo not given), for which the solubility kinetic at 500 µM is 242 µg/mL (≈ 492 µM). In the case of `CN(C)C(=O)c1ccncc1Nc1cc(-c2ccc3ccn(C)c3c2)c2nccnc2c1`, the solubility kinetic at 500 µM stood at 175 µg/mL (≈ 414 µM).

Consider `CN1CCC(NC(=O)c2ccncc2Nc2cc(-c3ccc4sc(N)nc4c3)c3nccnc3c2)C1` (stereo not given), for which the solubility kinetic at 500 µM came to 241 µg/mL (≈ 485 µM). To `Cn1ccc2ccc(-c3cc(Nc4cnccc4C(=O)Nc4cncnc4)cc4nccnc34)cc21` belongs 4 µg/mL (≈ 8.47 µM).

Turning to `Cn1ccc2ccc(-c3cc(Nc4ccccc4S(=O)(=O)NCc4cncnc4)cc4nccnc34)cc21`, the solubility kinetic at 500 µM was determined as 3 µg/mL (≈ 5.75 µM). On to `Cn1ccc2ccc(-c3cc(Nc4ccccc4S(=O)(=O)NCC4CCOCC4)cc4nccnc34)cc21`, for which the solubility kinetic at 500 µM worked out at 2 µg/mL (≈ 3.79 µM). In the case of `CN1CCC(CNS(=O)(=O)c2ccccc2Nc2cc(-c3ccc4ccn(C)c4c3)c3nccnc3c2)C1` (stereo not given), the solubility kinetic at 500 µM is 35 µg/mL (≈ 66.5 µM). As for `CN1CC(NC(=O)c2ccncc2Nc2cc(-c3ccc4ccn(C)c4c3)c3nccnc3c2)CCC1=O` (stereo not given), the solubility kinetic at 500 µM worked out at 253 µg/mL (≈ 500 µM). For `CC(=O)N1CC(NC(=O)c2ccncc2Nc2cc(-c3ccc4ccn(C)c4c3)c3nccnc3c2)C1`, the solubility kinetic at 500 µM was 244 µg/mL (≈ 496 µM). In the case of `Cn1ccc2ccc(-c3cc(Nc4ccccc4S(N)(=O)=O)cc4nccnc34)cc21`, the solubility kinetic at 500 µM is 6 µg/mL (≈ 14 µM).

For the compound `Cn1ccc2ccc(-c3cc(Nc4cnccc4C(=O)NCc4cncnc4)cc4nccnc34)cc21`, the solubility kinetic at 500 µM was determined as 233 µg/mL (≈ 479 µM).

Take `CN1CCCC(NS(=O)(=O)c2ccccc2Nc2cc(-c3ccc4ccn(C)c4c3)c3nccnc3c2)C1` (stereo not given): the solubility kinetic at 500 µM is 9 µg/mL (≈ 17.1 µM). Take `CN(C)S(=O)(=O)c1ccccc1Nc1cc(-c2ccc3ccn(C)c3c2)c2nccnc2c1`: the solubility kinetic at 500 µM came to 2 µg/mL (≈ 4.37 µM).

On to `Cn1cc(CNC(=O)c2ccncc2Nc2cc(-c3ccc4ccn(C)c4c3)c3nccnc3c2)cn1`, for which the solubility kinetic at 500 µM worked out at 127 µg/mL (≈ 260 µM). Take `Cc1csc2ccc(-c3cc(Nc4cnccc4C(=O)N[C@@H]4CCN(C)C4)cc4nccnc34)cc12`: the solubility kinetic at 500 µM worked out at 79 µg/mL (≈ 160 µM).

On to `Cn1cc(CNS(=O)(=O)c2ccccc2Nc2cc(-c3ccc4ccn(C)c4c3)c3nccnc3c2)cn1`, for which the solubility kinetic at 500 µM was 2 µg/mL (≈ 3.82 µM). `CN1CC(NC(=O)c2ccncc2Nc2cc(-c3ccc4ccn(C)c4c3)c3nccnc3c2)C1`: the solubility kinetic at 500 µM was determined as 170 µg/mL (≈ 367 µM). As for `Cn1ccc2ccc(-c3cc(Nc4cnccc4C(=O)NCC4COCCN4)cc4nccnc34)cc21` (stereo not given), the solubility kinetic at 500 µM is 239 µg/mL (≈ 484 µM). Consider `CNS(=O)(=O)c1ccccc1Nc1cc(-c2ccc3ccn(C)c3c2)c2nccnc2c1`, for which the solubility kinetic at 500 µM came to 2 µg/mL (≈ 4.51 µM). In the case of `CN(Cc1cncnc1)S(=O)(=O)c1ccccc1Nc1cc(-c2ccc3ccn(C)c3c2)c2nccnc2c1`, the solubility kinetic at 500 µM stood at 3 µg/mL (≈ 5.6 µM). For the compound `CN1CCC(CNC(=O)c2ccncc2Nc2cc(-c3ccc4ccn(C)c4c3)c3nccnc3c2)C1` (stereo not given), the solubility kinetic at 500 µM was 246 µg/mL (≈ 500 µM). Turning to `CN1CCC(NC(=O)c2ccncc2Nc2cc(-c3ccc4ccn(C)c4c3)c3nccnc3c2)CC1=O` (stereo not given), the solubility kinetic at 500 µM is 48 µg/mL (≈ 94.9 µM). Under `Cc1csc2ccc(-c3cc(Nc4cnccc4C(=O)N[C@H]4CCN(C)C4)cc4nccnc34)cc12` stands 80 µg/mL (≈ 162 µM).
